Laboratory results reported in PubChem BioAssay AID2060607 (Molecular Pharmacology Branch, DTP, NCI, 2025).
Values joined by “and” are separate entries in the source; they are usually repeats but may differ in a detail not shown here. Equal values may be shown once.

Test system: 876862-298-R-J1-PDC complex spheroids, viability % test/control
Assay: Anticancer human tumor 876862-298-R-J1-PDC patient-derived endometrial carcinoma cell line growth inhibition [CLK]
Conditions: for viability, T/C: stronger effect = lower value
Procedure, shortened: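 Multi-cell-type spheroids combined patient-derived tumor cells with HUVEC endothelial cells and human mesenchymal stem cells. Paired agents were dosed in half-log steps down from about clinical Cmax, or from 10 microM where Cmax was unknown.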

[1] = curve of first compound, second compound 0.0316 µM
[2] = curve of first compound, second compound 0.1 µM
[3] = curve of first compound, second compound 0.316 µM
[4] = curve of first compound, second compound 1 µM
[5] = curve of first compound, second compound 3.16 µM
[6] = curve of first compound, second compound 10 µM
[7] = second compound 0.0316 µM, first compound 0.0316 µM
[8] = second compound 0.0316 µM, first compound 0.1 µM
[9] = second compound 0.1 µM, first compound 0.0316 µM
[10] = second compound 0.1 µM, first compound 0.1 µM
[11] = second compound 0.316 µM, first compound 0.0316 µM
[12] = second compound 0.316 µM, first compound 0.1 µM
[13] = second compound 1 µM, first compound 0.0316 µM
[14] = second compound 1 µM, first compound 0.1 µM
[15] = second compound 3.16 µM, first compound 0.0316 µM
[16] = second compound 3.16 µM, first compound 0.1 µM
[17] = second compound 10 µM, first compound 0.0316 µM
[18] = second compound 10 µM, first compound 0.1 µM
[19] = second compound 0.0316 µM, first compound 0.316 µM
[20] = second compound 0.0316 µM, first compound 1 µM
[21] = second compound 0.0316 µM, first compound 3.16 µM
[22] = second compound 0.0316 µM, first compound 10 µM
[23] = second compound 0.1 µM, first compound 0.316 µM
[24] = second compound 0.1 µM, first compound 1 µM
[25] = second compound 0.1 µM, first compound 3.16 µM
[26] = second compound 0.1 µM, first compound 10 µM
[27] = second compound 0.316 µM, first compound 0.316 µM
[28] = second compound 0.316 µM, first compound 1 µM
[29] = second compound 0.316 µM, first compound 3.16 µM
[30] = second compound 0.316 µM, first compound 10 µM
[31] = second compound 1 µM, first compound 0.316 µM
[32] = second compound 1 µM, first compound 1 µM
[33] = second compound 1 µM, first compound 3.16 µM
[34] = second compound 1 µM, first compound 10 µM
[35] = second compound 3.16 µM, first compound 0.316 µM
[36] = second compound 3.16 µM, first compound 1 µM
[37] = second compound 3.16 µM, first compound 3.16 µM
[38] = second compound 3.16 µM, first compound 10 µM
[39] = second compound 10 µM, first compound 0.316 µM
[40] = second compound 10 µM, first compound 1 µM
[41] = second compound 10 µM, first compound 3.16 µM
[42] = second compound 10 µM, first compound 10 µM
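Also: spheroids exposed to drugs for 7 days before readout.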
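For viability, T/C in this document: 100% = DMSO vehicle control wells.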

`Cn1ncnc1[C@H]1c2n[nH]c(=O)c3cc(F)cc(c23)N[C@@H]1c1ccc(F)cc1` + CN1CCN(c2cc(C(=O)Nc3cc4cc(-c5cnn(C)c5)ccc4cn3)ccn2)CC1 showed an IC50 [1] greater than 100 nM, an IC50 [2] of less than 0.316 nM and an IC50 [3] of less than 0.316 nM. The IC50 [4] was less than 0.316 nM, the IC50 [5] was less than 0.316 nM and the IC50 [6] was less than 0.316 nM. It also gave a viability, T/C (second compound 0.0316 µM, first compound 0.000316 µM) of 94.8%, a viability, T/C (second compound 0.0316 µM, first compound 0.001 µM) of 81.4% and a viability, T/C (second compound 0.0316 µM, first compound 0.00316 µM) of 89.7%. It also gave a viability, T/C (second compound 0.0316 µM, first compound 0.01 µM) of 87%, a viability, T/C [7] of 99.8% and a viability, T/C [8] of 81.6%. For the same compound, the viability, T/C (second compound 0.1 µM, first compound 0.000316 µM) was 44.7%, the viability, T/C (second compound 0.1 µM, first compound 0.001 µM) was 48.4% and the viability, T/C (second compound 0.1 µM, first compound 0.00316 µM) was 44.7%. For the same compound, the viability, T/C (second compound 0.1 µM, first compound 0.01 µM) was 48%, the viability, T/C [9] was 43.2% and the viability, T/C [10] was 37.9%. The viability, T/C (second compound 0.316 µM, first compound 0.000316 µM) was 2.64%, the viability, T/C (second compound 0.316 µM, first compound 0.001 µM) was 2.72% and the viability, T/C (second compound 0.316 µM, first compound 0.00316 µM) was 2.87%. The viability, T/C (second compound 0.316 µM, first compound 0.01 µM) was 3.16%, the viability, T/C [11] was 2.95% and the viability, T/C [12] was 2.25%. It also gave a viability, T/C (second compound 1 µM, first compound 0.000316 µM) of 0.47%, a viability, T/C (second compound 1 µM, first compound 0.001 µM) of 0.71% and a viability, T/C (second compound 1 µM, first compound 0.00316 µM) of 1%. The viability, T/C (second compound 1 µM, first compound 0.01 µM) was 0.8%, the viability, T/C [13] was 0.52% and the viability, T/C [14] was 0.74%. For the same compound, the viability, T/C (second compound 3.16 µM, first compound 0.000316 µM) was 0.96%, the viability, T/C (second compound 3.16 µM, first compound 0.001 µM) was 0.86% and the viability, T/C (second compound 3.16 µM, first compound 0.00316 µM) was 0.88%. The viability, T/C (second compound 3.16 µM, first compound 0.01 µM) was 0.88%, the viability, T/C [15] was 1.01% and the viability, T/C [16] was 0.64%. It also gave a viability, T/C (second compound 10 µM, first compound 0.000316 µM) of 0.56%, a viability, T/C (second compound 10 µM, first compound 0.001 µM) of 0.62% and a viability, T/C (second compound 10 µM, first compound 0.00316 µM) of 0.88%. It also gave a viability, T/C (second compound 10 µM, first compound 0.01 µM) of 0.76%, a viability, T/C [17] of 0.63% and a viability, T/C [18] of 0.56%.
Compound `C#Cc1c(F)ccc2cc(O)cc(-c3ncc4c(N5CC6CCC(C5)N6)nc(OCC56CCCN5CC(F)C6)nc4c3F)c12` (stereo not given) + CN1CCN(c2cc(C(=O)Nc3cc4cc(-c5cnn(C)c5)ccc4cn3)ccn2)CC1 has an IC50 [1] greater than 10000 nM, an IC50 [2] of 501 nM and an IC50 [3] of less than 31.6 nM. The IC50 [4] was less than 31.6 nM, the IC50 [5] was less than 31.6 nM and the IC50 [6] was less than 31.6 nM. It also gave a viability, T/C [7] of 98.9%, a viability, T/C [8] of 92.6% and a viability, T/C [19] of 87.8%. The viability, T/C [20] was 93.7%, the viability, T/C [21] was 91.6% and the viability, T/C [22] was 74.1%. It also gave a viability, T/C [9] of 51.6%, a viability, T/C [10] of 52.2% and a viability, T/C [23] of 50.8%. For the same compound, the viability, T/C [24] was 48.6%, the viability, T/C [25] was 47.7% and the viability, T/C [26] was 45.4%. For the same compound, the viability, T/C [11] was 5.98%, the viability, T/C [12] was 5.2% and the viability, T/C [27] was 5.69%. For the same compound, the viability, T/C [28] was 4.19%, the viability, T/C [29] was 5.76% and the viability, T/C [30] was 4.81%. It also gave a viability, T/C [13] of 0.92%, a viability, T/C [14] of 0.91% and a viability, T/C [31] of 0.75%. The viability, T/C [32] was 1.82%, the viability, T/C [33] was 1.86% and the viability, T/C [34] was 1.68%. The viability, T/C [15] was 1.56%, the viability, T/C [16] was 2.17% and the viability, T/C [35] was 1.31%. It also gave a viability, T/C [36] of 2.48%, a viability, T/C [37] of 2.22% and a viability, T/C [38] of 3.07%. The viability, T/C [17] was 0.96%, the viability, T/C [18] was 0.95% and the viability, T/C [39] was 1.74%. The viability, T/C [40] was 1.58%, the viability, T/C [41] was 2.68% and the viability, T/C [42] was 1.54%.
For `Nc1ccccc1NC(=O)c1ccc(CNC(=O)OCc2cccnc2)cc1`, the viability, T/C (compound 0.0316 µM) was 99.9% and 95.4%, the viability, T/C (compound 0.1 µM) was 106% and 99.6% and the viability, T/C (compound 0.316 µM) was 105%. For the same compound, the viability, T/C (compound 1 µM) was 91.7% and 106%, the viability, T/C (compound 3.16 µM) was 80.1% and 75.2% and the viability, T/C (compound 10 µM) was 39.1% and 29.7%. The IC50 (curve of compound) was 7340 nM and 6000 nM.
In the case of `CC1COCCN1c1cc(C2(S(C)(=N)=O)CC2)nc(-c2ccnc3[nH]ccc23)n1` (stereo not given) + CNC(=O)c1ccc(Nc2nc(OC3CCCC3)c3c(-c4ccc5nc(C)oc5c4)c[nH]c3n2)c(OC)c1, the IC50 [1] is reported as 2200 nM, the IC50 [2] is reported as less than 31.6 nM and the IC50 [3] is reported as less than 31.6 nM. For the same compound, the IC50 [4] was less than 31.6 nM, the IC50 [5] was less than 31.6 nM and the IC50 [6] was less than 31.6 nM. The viability, T/C [7] was 70.2%, the viability, T/C [8] was 84.7% and the viability, T/C [19] was 75.5%. For the same compound, the viability, T/C [20] was 69.8%, the viability, T/C [21] was 40.9% and the viability, T/C [22] was 22.5%. The viability, T/C [9] was 47.2%, the viability, T/C [10] was 50.9% and the viability, T/C [23] was 42.7%. The viability, T/C [24] was 44.6%, the viability, T/C [25] was 24.3% and the viability, T/C [26] was 15%. It also gave a viability, T/C [11] of 43.8%, a viability, T/C [12] of 41.5% and a viability, T/C [27] of 39.1%. It also gave a viability, T/C [28] of 30%, a viability, T/C [29] of 20.5% and a viability, T/C [30] of 11.4%. The viability, T/C [13] was 34.4%, the viability, T/C [14] was 37.4% and the viability, T/C [31] was 28.3%. For the same compound, the viability, T/C [32] was 22.6%, the viability, T/C [33] was 13% and the viability, T/C [34] was 6.42%. For the same compound, the viability, T/C [15] was 29%, the viability, T/C [16] was 21% and the viability, T/C [35] was 17.2%. The viability, T/C [36] was 11.7%, the viability, T/C [37] was 8.18% and the viability, T/C [38] was 3.92%. The viability, T/C [17] was 22.4%, the viability, T/C [18] was 19.5% and the viability, T/C [39] was 14.1%. For the same compound, the viability, T/C [40] was 12.6%, the viability, T/C [41] was 7.52% and the viability, T/C [42] was 3.99%.
Compound `CC1COCCN1c1cc(C2(S(C)(=N)=O)CC2)nc(-c2ccnc3[nH]ccc23)n1` (stereo not given) + CN1CCN(c2cc(C(=O)Nc3cc4cc(-c5cnn(C)c5)ccc4cn3)ccn2)CC1 has an IC50 [1] of 2100 nM, an IC50 [2] of less than 31.6 nM and an IC50 [3] of less than 31.6 nM. It also gave an IC50 [4] of less than 31.6 nM, an IC50 [5] of less than 31.6 nM and an IC50 [6] of less than 31.6 nM. For the same compound, the viability, T/C [7] was 89.1%, the viability, T/C [8] was 87.5% and the viability, T/C [19] was 76.5%. For the same compound, the viability, T/C [20] was 62.1%, the viability, T/C [21] was 43.6% and the viability, T/C [22] was 17.9%. For the same compound, the viability, T/C [9] was 45.1%, the viability, T/C [10] was 51.9% and the viability, T/C [23] was 38.9%. For the same compound, the viability, T/C [24] was 33.6%, the viability, T/C [25] was 18.4% and the viability, T/C [26] was 7.47%. It also gave a viability, T/C [11] of 2.43%, a viability, T/C [12] of 2.03% and a viability, T/C [27] of 2.19%. The viability, T/C [28] was 2.32%, the viability, T/C [29] was 2.12% and the viability, T/C [30] was 1.33%. The viability, T/C [13] was 0.64%, the viability, T/C [14] was 0.83% and the viability, T/C [31] was 0.8%. For the same compound, the viability, T/C [32] was 0.51%, the viability, T/C [33] was 0.47% and the viability, T/C [34] was 0.27%. The viability, T/C [15] was 0.98%, the viability, T/C [16] was 1.82% and the viability, T/C [35] was 0.92%. For the same compound, the viability, T/C [36] was 0.81%, the viability, T/C [37] was 0.61% and the viability, T/C [38] was 0.4%. For the same compound, the viability, T/C [17] was 0.94%, the viability, T/C [18] was 0.66% and the viability, T/C [39] was 1.4%. It also gave a viability, T/C [40] of 0.63%, a viability, T/C [41] of 0.59% and a viability, T/C [42] of 0.74%.
